Where two headings read alike, the source gives them in different places.
Experiments:
[1] = target: ecNadD (Escherichia coli (strain K12), UniProt P0A752); assay: biochemical; type: biochemical; settings: for IC50: IC50 ecNadD; for inhibition at 100 µM: read-out: INHIBITION (%) E. coli
[2] = target: baNadD (Bacillus anthracis, UniProt C3L5T6); assay: biochemical; type: biochemical; settings: for inhibition at 50 µM: read-out: INHIBITION (%) B. anthracis
Chain of baNadD (C3L5T6 whole entry, looked up): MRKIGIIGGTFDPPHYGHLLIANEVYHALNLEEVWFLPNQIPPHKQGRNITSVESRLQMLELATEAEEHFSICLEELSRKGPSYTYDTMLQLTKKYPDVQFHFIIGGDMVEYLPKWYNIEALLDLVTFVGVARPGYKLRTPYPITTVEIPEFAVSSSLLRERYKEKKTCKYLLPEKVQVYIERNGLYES

Compound	[…]. coli [1] [%]	[…]. anthracis [2] [%]	other results
O=C(O)Cn1cc(Cl)c([N+](=O)[O-])n1 [compound 117]	8	14	
Nc1nc(-c2cc([N+](=O)[O-])cc([N+](=O)[O-])c2)n[nH]1 [compound 253]	0	7	
O=C(CCC(=O)Nc1cccc(Br)c1)N/N=C/c1c2ccccc2cc2ccccc12 [01_01]			IC50 [1]: 6 µM; inhibition at 100 µM [1]: 90%; IC50 ([2]; read-out: IC50 baNadD): 4 µM; inhibition at 50 µM [2]: 81%
O=C(O)c1ccc2[nH]c(CCc3nc4cc(C(=O)O)ccc4[nH]3)nc2c1 [compound 235]	0	0	
O=C(O)c1[nH]c2ccc(Cl)cc2c1-c1ccccc1 [compound 185]	2	40	
COc1ccc(/C(C)=N/NC(=O)CNc2cc(Br)c(C)c(Br)c2)c(OC)c1 [01_11]			inhibition at 100 µM [1]: 70%; IC50 ([2]; read-out: IC50 baNadD): 30 µM; inhibition at 50 µM [2]: 86%
O=S(=O)(N/N=C/c1cccc(OC2CSC2)c1)c1ccccc1 [compound 292]	0	0	
CC(=O)c1ccc(N/C=C2/C(=O)Nc3ccccc32)cc1 [15_42]			inhibition at 100 µM [1]: 0%; inhibition at 50 µM [2]: 11%
O=[N+]([O-])c1cccc(S(=O)(=O)Nn2cnnc2)c1 [compound 241]	0	59	
COc1ccc(S(=O)(=O)Nc2ccc(C(N)=O)cc2)cc1Cl [compound 139]	6	0	
Cc1nnc(N/N=C/c2ccccc2C(=O)O)nc1O [compound 267]	0	4	
CCc1c(O)nc(SC2CC(=O)N(c3ccccc3)C2=O)nc1O (stereo not drawn) [compound 053]	16	0	
COC(=O)c1ccccc1N/C=C1\C(=O)Nc2ccccc21 [15_08]			inhibition at 100 µM [1]: 14%; inhibition at 50 µM [2]: 0%
Cc1ccccc1N1CC(C(=O)O)CC1=O (stereo not drawn) [compound 184]	2	16	
O=C(O)c1ccc(-n2cccn2)cc1 [compound 141]	6	17	
Nc1nnc(SCc2ccccc2Cl)s1 [compound 104]	9	29	
COc1cccc(N/C=C2\C(=O)Nc3ccccc32)c1 [15_37]			inhibition at 100 µM [1]: 4%; inhibition at 50 µM [2]: 1%
Nc1c(C(=O)Nc2ccc(Cl)cc2Cl)sc2nc(-c3cccs3)ccc12 [03_11]			IC50 [1]: 30 µM; inhibition at 100 µM [1]: 54%; IC50 ([2]; IC50 baNadD): 13 µM; inhibition at 50 µM [2]: 90%
CCOC(=O)c1cc(-c2ccc(C)cc2)[nH]n1 [compound 106]	9	0	
Cc1c(NC(=O)CSS(=O)(=O)O)c(=O)n(-c2ccccc2)n1C [compound 023]	24	34	
O=C(O)c1ccc2nc(-c3ccc(O)cc3)sc2c1 [compound 277]	0	0	
CC(=O)Nc1ccc(S(=O)(=O)Nc2ccc(Cl)cc2Cl)cc1 [compound 008]	47	0	
CC(=O)Nc1ccc(NC(=O)CSc2nccc(O)n2)cc1 [compound 128]	7	0	
Cn1ccc(NC(=O)Nc2ccc(Cl)cc2Cl)n1 [compound 091]	10	0	
O=C(O)CCC(=O)NCc1ccc(C(=O)O)cc1 [compound 238]	0	14	
Cc1ccc(N/C=C2\C(=O)Nc3ccccc32)c(C)c1 [15_02]			inhibition at 100 µM [1]: 20%; inhibition at 50 µM [2]: 29%
O=C(O)CN(c1ccccc1)S(=O)(=O)c1ccccc1[N+](=O)[O-] [compound 115]	8	0	
O=C(NNC(=O)c1ccco1)c1cccc(I)c1 [compound 028]	23	7	
O=c1[nH]c2ccc(/N=C/c3cc(Cl)ccc3O)cc2[nH]1 [compound 135]	6	10	

— patent publication US8785499B2 (priority 2009, dated 2014)
